Experimental data: patent US12655380B2, “Fluidic device” (UNIVERSITY PUBLIC CORPORATION OSAKA, priority 2019, dated 2026)

System: BBB model (human cerebrovascular endothelial cells, pericytes, astrocytes)
Test: Barrier Function Evaluation Experiment 2: passage of the fluorescent dye through the BBB model in the fluidic device
Format: in vitro ADME
Details: 200 μM Lucifer Yellow in first flow path; after 5 minutes (300 seconds) flow; measured in the neuron cell culture module in the second accommodation section, behind the BBB model; FIG. 25(b)/FIG. 26
Experimental: Specifically, a cubic polycarbonate three-dimensional frame having a side length of 5 mm was prepared, and a 1.5% agarose gel was poured into an opening of the three-dimensional frame and gelled to form a film-shaped window from the resulting hydrogel. The window was formed on each of five faces of the three-dimensional frame as described above. Thereafter, a clump of neurons differentiated from human brain-derived neural stem cells and Matrigel (registered trademark) being an un-gelled culture gel were injected into a cubic space within the three-dimensional frame, and the culture gel was gelled. Then, a hydrogel window was formed on a remaining face of the three-dimensional frame. Through the above, the cell culture module including neurons was produced. […]
An experiment was conducted for evaluation of the barrier function of the BBB model. […] After the fluorescent dye solution and the medium had flowed for 5 minutes (300 seconds), a fluorescence image and a phase-contrast image of the inside of the cell culture module were captured through the fluidic device.
FIGS. 24(a) and 24(b) each show a fluorescence image (left) of the inside of the cell culture module including neurons used in the control experiment, and an image (right) obtained by superimposing the fluorescence image and a phase-contrast image on one another. […]

Lucifer Yellow [fluorescent dye]
relative luminance value on dashed line x-x' (corresponds to Lucifer Yellow concentration): approximately 0.1
